No end group written: not given here.
Legend:
[1] = tested on: Escherichia coli, Pseudomonas aeruginosa, Bacillus subtilis, Staphylococcus aureus, Candida albicans, Candida parapsilosis; test: Radial diffusion assay (RDA); format: cell-based; details: peptide at 100 μM; compared with LL-37
Experimental: Essentially as described earlier, bacteria were grown to mid-logarithmic phase in 10 ml of full-strength (3% w/v) trypticase soy broth (TSB) (Becton-Dickinson). The microorganisms were then washed once with 10 mM Tris, pH 7.4. Subsequently, 4×10^6 cfu were added to 15 ml of the underlay agarose gel, consisting of 0.03% (w/v) TSB, 1% (w/v) low electroendosmosis type (EEO) agarose (Sigma-Aldrich) and 0.02% (v/v) Tween 20 (Sigma-Aldrich). The underlay was poured into a Ø 144 mm petri dish. After agarose solidification, 4 mm-diameter wells were punched and 6 μl peptide solution of required concentration added to each well. Plates were incubated at 37° C. for 3 h to allow peptide diffusion. The underlay gel was then covered with 15 ml of molten overlay (6% TSB and 1% Low-EEO agarose in distilled H2O). Antimicrobial activity of a peptide was visualized as a zone of clearing around each well after 18-24 h of incubation at 37° C.
Essentially as described earlier (Lehrer, Rosenman et al. 1991; Andersson, Rydengård et al. 2004), bacteria were grown to mid-logarithmic phase in 10 ml of full-strength (3% w/v) trypticase soy broth. (TSB) (Becton-Dickinson). The microorganisms were then washed once with 10 mM Tris, pH 7.4. Subsequently, 4×10^6 cfu were added to 15 ml of the underlay agarose gel, consisting of 0.03% (w/v) TSB, 1% (w/v) low electroendosmosis type (EEO) agarose (Sigma-Aldrich) and 0.02% (v/v) Tween 20 (Sigma-Aldrich). The underlay was poured into a Ø 144 mm petri dish. After agarose solidification, 4 mm-diameter wells were punched and 6 μl peptide solution of required concentration added to each well. Plates were incubated at 37° C. for 3 h to allow peptide diffusion. The underlay gel was then covered with 15 ml of molten overlay (6% TSB and 1% Low-EEO agarose in distilled H2O). Antimicrobial activity of a peptide was visualized as a zone of clearing around each well after 18-24 h of incubation at 37° C. […]

[2] = tested on: E. coli, P. aeruginosa and S. aureus; test: Viable count assay; format: cell-based; details: for Time within which bacterial killing occurred: 30 μM, pH 7.4, 20% plasma; for Time within which bacterial killing occurred / Antibacterial activity in viable count assays: 0.15 M NaCl, 10 mM Tris; for Antibacterial activity in viable count assays: with or without 20% human citrate plasma
Experimental: E. coli ATCC 25922 bacteria were grown to mid-logarithmic phase in Todd-Hewitt (TH) medium. Bacteria were washed and diluted in 10 mM Tris, pH 7.4 containing 5 mM glucose. E. coli ATCC 25922 ([…]; 2×10^6 cfu/ml) were incubated, at 37° C. for 2 h with peptides at the indicated concentrations. Other experiments with the TFPI-peptides and LL-37 were performed in 10 mM Tris, pH 7.4, containing also 0.15 M NaCl, with normal or heat inactivated 20% citrate-plasma (PP). Serial dilutions of the incubation mixture were plated on TH agar, followed by incubation at 37° C. overnight and cfu determination.
(§1) E. coli ATCC 25922, P. aeruginosa 15159, or S. aureus ATCC 29213 bacteria were grown to mid-logarithmic phase in Todd-Hewitt (TH) medium (Becton and Dickinson, Maryland, USA). The microorganisms were then washed and diluted in 10 mM Tris, pH 7.4 containing 5 mM glucose. Following this, bacteria (50 μl; 2×10^6 cfu/ml) were incubated, at 37° C. for 2 hours, with KYE28, KYE21 or LL-37 (at 0.03, 0.06, 0.3, 0.6, 3, 6, 30, 60 μM) in 10 mM Tris, 0.15 M NaCl, with or without 20% human citrate-plasma. To quantify the bactericidal activity, serial dilutions of the incubation mixtures were plated on TH agar, followed by incubation at 37° C. overnight and the number of colony-forming units was determined. 100% survival was defined as total survival of bacteria in the same buffer and under the same condition in the absence of peptide. Significance was determined using the statistical software SigmaStat (SPSS Inc., Chicago, Ill., USA).
as §1, with “NLF20” for “KYE28, KYE21”, “citrate-plasma. In the experiments using 50% whole blood, S. aureus ATCC 29213 and P. aeruginosa ATCC 27853 bacteria (50 μl; 2×10^8 cfu/ml) were incubated at 37° C. for 1 hour in the presence of peptide at 60 (for P. aeruginosa) and 120 μM (P. aeruginosa and S. aureus).” for “citrate-plasma.”

Sequence	Antimicrobial activity in RDA (zones of clearance) [1]	Time within which bacterial killing occurred [2] [min]	Antibacterial activity in viable count assays [2]	Antibacterial activity in presence of human citrated plasma (viable count) ([2]; 20% human citrate plasma vs buffer)
NLFRKLTHRLFRRNFGYTLR [NLF20]	well exceeded those observed for	5 to 20	displays significant antibacterial activity	retained, and for E. coli and S. aureus, even enhanced
KYEITTIHNLFRKLTHRLFRR [KYE21]	activities were similar to those observed for	–	significant antibacterial activity	–
KYEITTIHNLFRKLTHRLFRRNFGYTLR [KYE28]	activities were similar to those observed for	5 to 20	significant antibacterial activity	–
